Experimental data reported in patent US20260374739A1, “SMALL MOLECULAR WEIGHT CHEMICAL COMPOUND TO ANTAGONIZE EPH-EPHRIN TETRAMERIZATION AND INHIBIT BIDIRECTIONAL SIGNALING” (THE BOARD OF REGENTS OF THE UNIVERSITY OF TEXAS SYSTEM, priority 2022, published 2026).
Values joined by “and” are separate entries in the source; they are usually repeats but may differ in a detail not shown here. Equal values may be shown once. Read-outs that look alike come from different tables or passages of the source.

Target: T1, EphrinB2-EphB4 (Homo sapiens, UniProt P54760)
T1 construct: soluble human EphB1-His, EphB2-His, and EphB4-His ectodomains; commercially available human EphrinB1-Fc (EB1), EphrinB2-Fc (EB2), and EphrinB3-Fc (EB3) ectodomain proteins; purchased
T1 sequence (P54760 16-539 limits assumed): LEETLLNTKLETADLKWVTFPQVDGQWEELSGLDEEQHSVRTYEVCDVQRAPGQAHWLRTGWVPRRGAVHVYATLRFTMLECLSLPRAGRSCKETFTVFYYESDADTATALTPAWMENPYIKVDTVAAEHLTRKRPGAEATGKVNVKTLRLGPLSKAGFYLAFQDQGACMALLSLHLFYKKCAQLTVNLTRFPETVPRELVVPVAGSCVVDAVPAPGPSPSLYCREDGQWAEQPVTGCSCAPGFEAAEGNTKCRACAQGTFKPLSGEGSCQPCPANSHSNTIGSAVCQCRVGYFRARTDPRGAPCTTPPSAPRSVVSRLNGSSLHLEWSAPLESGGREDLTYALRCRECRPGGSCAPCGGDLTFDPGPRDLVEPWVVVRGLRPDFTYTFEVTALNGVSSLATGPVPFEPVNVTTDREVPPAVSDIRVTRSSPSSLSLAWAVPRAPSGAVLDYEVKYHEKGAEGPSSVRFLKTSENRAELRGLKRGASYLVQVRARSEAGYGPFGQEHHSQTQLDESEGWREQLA
Assay: Octet 80 sec association/500 sec dissociation, immobilized human EphrinB2-Fc binding to soluble human EphB4-His
Details: for EphB4 Inhibition Percent, Inhibition of Association ONLY: at 3.2 μM and 80 seconds; for EphB4 Inhibition Percent, Inhibition of Association ONLY / EphB4 Inhibition Percent, Inhibition of Association-Dissociation: immobilized human EphrinB2, 25 nM soluble human EphB4; for EphB4 Inhibition Percent, Inhibition of Association-Dissociation: at 3.2 μM and 580 seconds; for inhibition at 3.2 µM: EphB4, 25 nM EphB4, 3.2 μM compound, A20-I as max control, 0* = less than 0, no inhibition
Outline: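 EphrinB2-Fc captured on AHC biosensors, then soluble His-tagged EphB ectodomain (25 nM for % inhibition runs) associated 80 s and dissociated 500 s in PBS, 0.05% Tween-20, 1% DMSO ± compound. Compounds tested at 0.1–3.2 μM with a 10 μM max standard; IC50 from AUC of full traces or at 75 s and 135 s.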

SMILES | EphB4 Inhibition Percent, Inhibition of Association ONLY | EphB4 Inhibition Percent, Inhibition of Association-Dissociation | inhibition at 3.2 µM (read-out: % Inhibition: Association + Dissociation (160 sec)) [%] | inhibition at 3.2 µM (read-out: % Inhibition: Association ONLY (80 sec)) [%]
O=S1(=O)CCN(Cc2ccc(O)c3ncccc23)CC1 [Compound 15, 4-((8-hydroxyquinolin-1-ium-5-yl)methyl)thiomorpholin-4-ium 1,1-dioxide chloride] | 10.8% | 19.0% |  | 
Oc1ccc(CN2CCN(c3ccc(Br)cn3)CC2)c2cccnc12 [Compound 33, 5-((4-(5-bromopyridin-2-yl)piperazin-1-yl)methyl)quinolin-8-ol] |  |  | 36.9 | 20.9
Oc1c(CN2CCCCC2)cc(Cl)c2cccnc12 [Compound 76, 5-chloro-7-(piperidin-1-ylmethyl)quinolin-8-ol, reference compound] | 17.9% and 11.6% | 34.5% and 29.6% |  | 
